Series [1] is described as follows: Oral bioavailability in the dog. Type of series: in vivo. As to conditions: 10 mg/kg oral (vs 1 mg/kg intravenous), plasma. As to the method:
(§1) Since the test compound produced significant activity in the adjuvant arthritic rats and experimental allergic encephalomyelitic guinea pigs when administered orally, the extent of oral bioavailability of this compound was estimated in rats and dogs. Compound 9 of Table 2 was administered intravenously (1 mg/kg) to conscious rats and dogs and blood samples were collected at various time points after administration. Similarly, the test compound was also administered orally (10 mg/kg) to a different set of rats and dogs and blood samples were collected at various time points. The blood samples were extracted and were analyzed by HPLC to obtain the concentration of compound 9 in the plasma. The plasma levels obtained after intravenous and oral administration were plotted against time, areas under the curves were calculated and percent bioavailability were estimated.

Series [2] concerns experimental allergic encephalomyelitis (EAE) in guinea pigs. The experiment in a line: Experimental allergic encephalomyelitis (EAE) in guinea pigs. As to conditions: 3 mg/kg orally once daily for 10 days. Type of series: in vivo, guinea pig. The source says: This method permits the evaluation of the potential of the test compound in preventing the development of an autoimmune disorder leading to demyelination in the guinea pigs which can be equated to multiple sclerosis disease in humans. EAE is a reproducible chronic inflammatory autoimmune disease of the central nervous system in which an animal is immunized with either a homologous or heterologous extract of the whole brain and spinal cord, which contains the basic myelin protein together with Freund's Complete Adjuvant (FCA). A pathological condition would set in during ten to twenty days following immunization, which is characterized by weight loss, abnormal gait, mild to severe ataxia, paraparesis and moribund state leading to death. The potential of the test compounds to prevent this autoimmune condition was evaluated by observing the severity of the disease and mortality in comparison with untreated and hydrocortisone (standard drug) treated animals.
Guinea pigs (200-300 g) were randomly distributed into groups of 10 each after receiving 0.075 ml of it brain and spinal cord extract in FCA intradermally on the back and 0.050 ml intrapedally in one hind paw. Compound 9 of Table 2 was administered orally at 3 mg/kg once daily for 10 days. The standard compound was administered 100 mg/kg p.o. once daily for 10 days. The weights of the animals were noted every day. Eight days after the induction of the disease, the animals were rated regularly for the severity of the disease and mortality was monitored.

Series [3] in a line: Oral bioavailability in the rat. Type of series: in vivo. The note with it: 10 mg/kg oral (vs 1 mg/kg intravenous), plasma. Here is the method:
as §1

In series [4] the test system is IL-1. The experiment in a line: IL-1 release inhibition (Table 2). The series is classed as cell-based, human. As to conditions: Homo sapiens; 5 μM; read-out: IL-1 Rel. Inhib. As to the method: (§2) 10 ml of human blood were carefully drawn from the antecubital vein using a syringe containing 1 ml of a solution of 3.8% sodium citrate. After dilution with 10 ml PM 16 (Serva, Heidelberg, FRG) and underlayering with 15 ml Lymphoprep® (Molter GmbH), the sample was centrifuged at 400×g for 40 min at 20° C. The mononuclear cells forming a white ring between lymphoprep and plasma were carefully aspirated by a syringe, diluted 1:1 with PM 16 and centrifuged again at 400×g for 10 min. […] was washed with 10 ml RPMI 1640 (Gibco, Berlin, FRG), containing additionally 300 mg/l L-glutamine, 25 mmol/l […] HEPES, 100 μg/ml streptomycin and 100 μg/ml penicillin. Finally, using a Coulter counter IT, the cell suspension was adjusted to 5×10^6 cells/ml. The cells consist of approx. 90% lymphocytes and 10% monocytes.
10 μl DMSO/water (1:10, v/v), containing the test compound, was added to 480 μl of a suspension, containing 5×10^6 mononuclear cells. The synthesis of IL-1 was stimulated by the addition of 10 μl DSMO/water (1:10, v/v), containing 0,5 μg LPS (Salmonella abortus equi, Sigma). After incubation at 37° C. for 18 hours, the samples were cooled to 0° C. and centrifuged for 1 min. in a table centrifuge. 25 μl aliquots of the supernatant were assayed for IL-1 alpha activity using a commercially available 125-J-IL-1-alpha radioimmunoassay Kit (Amersham/UK), and for IL-1 beta in a similar way using the specific test kit. Control experiments were performed as described without test compound, or with cycloheximide as a test compound.

In series [5] the test system is adjuvant arthritis in rats. In words: Adjuvant-induced arthritis in rats. Type of series: in vivo, rat (female Wistar). The note with it: 3, 10, and 30 mg/kg orally once a day, 12 days.
Series [6] has as its system histamine induced contraction of guinea pig ileum. The experiment in a line: Histamine induced contraction of guinea pig ileum (specificity). Type of series: cell-based. The note with it: up to 7.11×10^-5 M. As to the method: (§3) The specificity of leukotriene antagonism was determined by inducing contraction of guinea pig ileum with agonists like histamine, acetylcholine and KC1. Compounds having specific effect against lipoxygenase products induced contraction normally would not show any inhibition of histamine, acetylcholine and KC1 induced contraction.

Series [7] has as its system IL-1 alpha. In words: Inhibition of LPS stimulated IL-1 alpha release from human mononuclear cells. Type of series: cell-based. The note with it: 18 hours, 37° C., read-out: Approx. IC50 (LPS stimulated IL-1 alpha). As to the method:
as §2
10 μl DMSO/water (1:10, v/v), containing the test compound, was added to 480 μl of a suspension, containing 5×10^6 mononuclear cells. The synthesis of IL-1 was stimulated by the addition of 10 μl DSMO/water (1:10, v/v), containing 0,5 μg LPS (Salmonella abortus equi, Sigma). After incubation at 37° C. for 18 hours, the samples were cooled to 0° C. and centrifuged for 1 min. in a table centrifuge. […]

The subject of series [8] is microanaphylactic shock of guinea pigs. The experiment in a line: Inhibition of micro-anaphylactic shock of guinea pigs (egg albumin aerosol). The series is classed as in vivo, guinea pig. The note with it: 20 mg/kg^-1, i.p. + pretreatment with indomethacin, 10 mg/kg.
Source text: Guinea pigs of either sex weighing between 300-350 g were sensitized with egg albumin absorbed over Al(OH)3 gel. After 21 days of sensitization, each animal was placed in an air tight perspex chamber and exposed to 0.5% egg albumin aerosol through EEL atomizer. EEL atomizer was operated by connecting it to pressurized air through a water trap and dial type sphygmomanometer at the constant air pressure of 180 mm Hg. The time of onset of asthma in seconds and recovery period in minutes was noted.
Each animal was exposed to egg albumin aerosol at an interval of 15 days to maintain the consistency of the reactivity of animals to the antigen. After 3 such control exposures, animals were subjected to drug treatment. On the day of the experiment one group of Guinea pigs consisting of 10 animals was kept as control exposing them only to 0.5% egg albumin aerosol. […] Fifteen mins. after the administration of the test compound the animals were exposed to 0.5% egg albumin aerosol.
Series [9] relates to Cotton Pellet Granuloma in Rats. The experiment in a line: Inhibition of carrageenin cotton pellet granuloma in rats. The series is classed as in vivo, rat (Wistar). The note with it: p.o. × 5. As to the method:
The implantation of carrageenin impregnated cotton pellets results in production of large, well-defined granuloma which are easily dissected. The potency of the compounds are assessed by measuring the reduction in granuloma tissue formation.
Cotton wool pellets weighing 40 mg were used for sterilization.
Pellets were dried overnight under a lamp. The pellets in the weight range of 42-44 mg were selected.
Rats (in groups of 6, male or female, Charles River, Wistar, weighing 140-150 g) were anaesthetized with ether. The back was shaved and cleaned; swabbed with alcohol and one centimeter incision was made in the lower midback. A small channel was made bilaterally using a blunt forceps and one cotton pellet placed in each channel. Air from the incision was removed and the wound was stitched. […] Three hours after the administration of the last dose on day 7, animals were sacrificed. The pellets were removed by cutting the skin along the dorsal midline and peeling the skin away from the bodywall in both lateral directions. The pellets were weighed and then placed in drying oven at 140° C. overnight. The dry weights were then recorded and the amount of granuloma was assessed by subtracting the original pellet weight from wet weights and dry weights. The data was evaluated using the difference of left and right weights (cf. Table 4).

For series [10], the system named is KC1 induced contraction of guinea pig ileum. The experiment in a line: KCl induced contraction of guinea pig ileum (specificity). As to conditions: up to 7.11×10^-5 M. Type of series: cell-based. As to the method: as §3
The subject of series [11] is isolated guinea pig ileum precontracted with leukotrienes. The experiment in a line: Relaxation of leukotriene induced contraction of isolated guinea pig ileum. The note with it: Cavia porcellus. The series is classed as cell-based. Here is the method: Guinea pigs of either sex weighing 300-350 g were sensitized with a suspension of aluminum hydroxide gel and egg albumin. After 21 days, each animal was exposed to 0.5% egg albumin aerosol in an air tight perspex chamber and only those animals which developed allergic bronchoconstriction were selected for further experiment.
The animals were tested for one week after antigenic exposure and then sacrificed by head blow and cutting carotid arteries. The lung was quickly removed and placed in aerated Tyrode solution kept at 37° C. The lung was cut into uniform strips and each strip was placed in an organ bath containing isolated guinea pig ileum connected to potentiometric recorder through isotonic transducer in the presence of Tyrode solution kept at 37° C. After a stabilizing period of 30 minutes, the reactivity of ileum to histamine was confirmed by challenging it with 100 ng-200 ng/ml of histamine. The perfusion fluid was then replaced by Tyrode solution containing Atropine (10^-7 M), Mepyramine maleate (10^-7 M) and methylsergide (10^-7 M). Three minutes later, lung strip was challenged by egg albumin (25 μg/ml) and release of leukotrienes was monitored in terms of slow contraction of ileum. The ileum was allowed to contract for 10-15 minutes when a plateau was achieved. The test compound (compound 4 of Table 1) was then added to observe the relaxation.
as §3

Where a name gives a salt, the structure may show the parent alone.

Turning to `COc1cc(OC)c([C@@H]2CCCC[C@H]2OC(=O)[C@H](C)N)c(O)c1C(=O)/C=C/c1cccc(Br)c1` [Compound 9 of Table 2, trans-(-)-2-[4,6-dimethoxy-2-hydroxy-3-(3-(3-bromophenyl)prop-2-(E)-enoyl)phenyl]cyclohexyl-2-(S)-amino propanoate hydrochloride], the results for the bioavailability in series [1] and in series [3] were 73% and 46%, respectively. Besides, the “reduction in the mortality rate” value in [2] is on record as 45%. Further, in series [2] (compared to untreated group), the “clinical symptoms (clinical grading)” value was “significantly reduced”. Moreover, in [4], the inhibition at 5 µM amounted to 55%. The “reduction in the uninjected paw volumes” value in [5] was “significant and dose dependent reduction”.

On to `COc1cc(OC)c([C@@H]2CCCC[C@H]2O)c(O)c1C(=O)/C=C/c1ccc(Cl)cc1` (relative stereo) [Compound 4 of Table 1, trans-(±)-2-[4,6-Dimethoxy-2-hydroxy-3-(3-(4-chlorophenyl)prop-2-(E)-enoyl)]phenylcyclohexanol], for which, in [6], the “Effect on histamine induced contraction” value is “No effect”. The IC50 in series [7] is 200 to 300 nM; in series [11] (relaxation of leukotriene precontracted ileum, read-out: App. IC50), 1680 nM. The Recovery period in [8] (control group 37 + 3.4) is 77.6 min. For the same compound, in series [8] (control group 75 + 8.7), the Onset Time was found to be 149 s. For the same compound, the figures for the “% Inhibition of granuloma, Dry wt.” value in series [9] (10 mg/kg), in [9] (20 mg/kg) and in [9] (30 mg/kg) were 35.6%, 89.0% and 82.8%, respectively. The “% Inhibition of granuloma, Wet wt.” value in series [9] (10 mg/kg) worked out at 21%; in [9] (20 mg/kg), 54%; in series [9] (30 mg/kg), 64%. For the same compound, the “Effect on KC1 induced contraction” value in series [10] was “No effect”. Besides, the inhibition at 1.2 µM in series [11] (Conc. 1.2 × 10^-6 M) was 36.8%. This compound also displayed an inhibition at 1.68 µM in [11] (Conc. 1.68 × 10^-6 M) of 50.5%. In series [11] (Conc. 2.4 × 10^-6 M), this compound yielded an inhibition at 2.4 µM of 62.4%. For the same compound, the inhibition at 7.2 µM in [11] (Conc. 7.2 × 10^-6 M) came out at 68%.

In general, bioavailability refers to dose-corrected exposure relative to a reference, in per cent. What is called IC50 is the concentration that inhibits the measured activity by half.

(Values after patent publication US6159988A, “Arylcycloalkyl derivatives, their production and their use” (Hoeschst Aktiengesellschaft, priority 1992, dated 2000).)
